Values joined by “and” are separate entries in the source; they are usually repeats but may differ in a detail not shown here. Equal values may be shown once. Values belong to the substance of their own block, whether it stands above or below them.
Assays:
[1] = target: Cuscuta Receptor 1 (CuRe1), myc-tagged (tomato (Solanum lycopersicum))
[2] = tested on: leaves of S. lycopersicum, IL 12-2, IL 8-1-1 and S. pennellii; assay: Hypersensitive response (HR) cell death after peptide infiltration into tomato leaves; format: in vivo; details: 7 days
Experimental: For monitoring hypersensitive responses (HR) in leaves, 35S::CrGRP:GFP or 35S::GFP constructs were expressed in either transgenic, CuRe1-expressing or wt N. benthamiana plants. Leaves were infiltrated as described above using the defined volume of 200 µl; infiltration area was carefully labeled with a black marker. Pictures were taken 7 days post infiltration. For detecting HR-symptoms in tomato plants, two leaves of three plants (six leaves total; per introgression line or wildtype) were infiltrated with 100 µl of a 100 nM peptide solution; infiltrated leaf area was labeled with a pen immediately after infiltration and photographs were taken 7 days post peptide infiltration.

S. lycopersicum = assay: Ethylene bioassay, leaf pieces of cultivated tomato; format: cell-based; details: Suppl.Fig6c, peptides applied at 5 µM each, mean of the samples
Experimental: (§1) All obtained extracts or collected fractions after each purification step, as well as the isolated CrGRP or synthesized Crip peptides were tested for bioactivity in the ethylene assay as previously described. For this we cut leaf samples of analyzed plants in 3 × 3 mm squares and float them on a water surface. After incubation over night at RT, three leaf pieces are carefully collected into glass tubes (6 ml) with 500 µl water. Samples were treated as indicated as well as amounts of used extracts or concentrations of peptides. After treatment tubes were sealed with a rubber plug and incubated at RT on a horizontal shaker (85–100 rpm) for 3 h. All samples were analyzed with a Gaschromatograph (Shimadzu, GC-2014, glass column 3 mm × 1.6 m with Al2O3) by manually injecting 1 ml of the gaseous phase.

N. benthamiana wt = assay: Ethylene bioassay, leaf pieces of wildtype N. benthamiana; format: cell-based
Experimental: as §1

[3] = MS analysis of Crip21 treated with NH4OH or ethylamine; format: physicochemical; details: 12.5% NH4OH or 70% ethylamine
Experimental: The Cuscuta factor (CuF) could be inactivated by incubating it either with 12.5% NH4OH or 70% ethylamine for 1 h at 45 °C.
49 Supplementary Fig. 5. Inactivation of Crip21 by treatments with NH4OH or Ethylamine; (a) Crip21
51 biosynthesis in CuRe1-expressing N. benthamiana leaves. Peptide samples were applied at
52 concentrations of 100 nM. Bovine serum albumin (BSA; 0.01 mg/ml) buffered in 25 mM MES (pH
53 5.7) was added as mock control. FW, fresh weight; ethylene measurements show means of three
54 technical replicates; error bars denote SD. (b) incubation with NH4OH or Ethylamine leads to
56 products with different masses.
(1 picture or pasted object on this page, not shown here)

CuRe1 [4] = assay: Ethylene bioassay, leaf pieces of transgenic CuRe1-expressing N. benthamiana; format: cell-based, S. lycopersicum (tomato), expressed in N. benthamiana; parameters: ethylene measurement, average: unit not given here; details: for activity in CuRe1-dependent ethylene induction (in words) / concentration at which ethylene production is triggered (minimum effective concentration): CuRe1-expressing N. benthamiana leaves; for concentration at which ethylene production is triggered (minimum effective concentration): dose-dependent ethylene bioassay; for Ethylene, MW: RepFig 3a_2, H2O
Experimental: as §1

CuRe1 [5] = assay: Affinity-crosslinking of bio-Crip29 with CuRe1 in planta; format: binding, S. lycopersicum (tomato), expressed in N. benthamiana
Experimental: In vivo cross-linking of biotin-Crip29 (Crip29 aa-sequence: […]) to CuRe1 was performed as described; leaves of N. benthamiana expressing 35S::CuRe1:myc, or control plants (N. benthamiana expressing 35S::RLP23:myc) were infiltrated with biotinylated bio-Crip29 (10 nM in ddH2O) with or without unlabeled Crip21 (or unlabeled Crip82-106) (10 μM) as competitor or with flg22 peptide as competition control. Five minutes after peptide treatment 2 mM EGS (ethylene glycol bis(succinimidyl succinate) in 25 mM HEPES buffer (pH 7.5) was infiltrated into the same leaves for cross-linking of peptides to the receptor proteins. Twenty minutes after cross-linking, leaf samples were harvested and frozen in liquid nitrogen; immunoprecipitations were performed against the myc tag present at the c-terminus of CuRe1 using myc-trap agarose beads (ChromoTek, IZB Martinsried, Germany) as described above. All peptides, including biotinylated bio-Crip29, were synthesized by GenScript® and ordered with a purity of >95%. Biotinylated Crip29 was detected on blots by Streptavidine-conjugated Alkaline Phosphatase (Strep-AP, Roche diagnostics; Streptavidin-AP conjugate, Cat. No.: 11089161001, dilution: 1:1000 in 5% Albumin Fraction V, biotin-free).

[6] = RepFig3b_2, 0.01 nM, mean of 3 samples
[7] = RepFig3b_2, 0.1 nM, mean of 3 samples
[8] = RepFig3b_2, 1 nM, mean of 3 samples
[9] = RepFig3b_2, 10 nM, mean of 3 samples
[10] = RepFig3b_2, 100 nM, mean of 3 samples
[11] = Fig3a + Supl4, N. benthamiana CuRe1, peptide 1 nM, mean of 3 technical replicates
[12] = Fig3a + Supl4, N. benthamiana CuRe1, peptide 10 nM, mean of 3 technical replicates
[13] = Fig3a + Supl4, N. benthamiana CuRe1, peptide 100 nM, mean of 3 technical replicates

- ethylene production in CuRe1-expressing N. benthamiana, dose series of peptide [1]: > 0.1 nM
Substance: CrGRP82-106 synthetic peptide

Substance: Crip21: 21 aa cysteine-rich peptide, minimal epitope of C. reflexa glycine-rich protein CrGRP, synthesized (NCGNSGCCGGAYSNGQCKRCC)
- HR-type cell death, plants lacking CuRe1 ([2]; leaves of S. pennellii and IL8-1-1 infiltrated with 100 nM peptide): did not
- HR-type cell death, plants with functional CuRe1 ([2]; leaves of cultivated tomato (S. lycopersicum) or IL 12-2 infiltrated with 100 nM peptide): showed Crip21-dependent cell death
- ethylene measurement, average (S. lycopersicum): 20.1539
- ethylene, average (N. benthamiana wt; Fig3a + Supl4, amount printed as 1 µl, mean of 3): 0.2667
- ethylene, average (N. benthamiana wt; Suppl.Fig5, peptide samples 100 nM, mean of 3, values <0.2 not collected): 0.2
- ethylene measurement, average (N. benthamiana wt; Suppl.Fig6c, peptides applied at 5 µM each, mean of the samples): 0.1967
- peptide mass signal after incubation with NH4OH or ethylamine [3]: disappearance of the peptide mass signal
- ethylene-inducing bioactivity after treatment with NH4OH (CuRe1 [4]; 12.5% NH4OH, 1 h at 45 °C, read-out ethylene in CuRe1 N. benthamiana, peptide 100 nM): lost all of its activity
- ethylene-inducing bioactivity after treatment with ethylamine (CuRe1 [4]; 70% ethylamine, 1 h at 45 °C, read-out ethylene in CuRe1 N. benthamiana, peptide 100 nM): loose activity
- activity in CuRe1-dependent ethylene induction (in words) (CuRe1 [4]): full activity
- concentration at which ethylene production is triggered (minimum effective concentration) (CuRe1 [4]): > 0.1 nM
- ethylene, average (CuRe1 [4]; Fig3a + Supl4, N. benthamiana CuRe1, amount printed as 1 µl, mean of 3 technical replicates): 10
- ethylene, average (CuRe1 [4]; [6]): 0.2767
- ethylene, average (CuRe1 [4]; [7]): 1.39
- ethylene, average (CuRe1 [4]; [8]): 4.143
- ethylene, average (CuRe1 [4]; [9]): 8.283
- ethylene, average (CuRe1 [4]; [10]): 9.4
- ethylene, average (CuRe1 [4]; Suppl.Fig5, N. benthamiana CuRe1, peptide samples 100 nM, untreated or treated with 12.5% NH4OH / 70% ethylamine, mean of 9 samples, values <0.2 not collected): 3.844
- ethylene, average (CuRe1 [4]; Suppl.Fig6b, N. benthamiana CuRe1, 0.01 nM, mean of 3): 0.375 pmol/ml air
- ethylene, average (CuRe1 [4]; Suppl.Fig6b, N. benthamiana CuRe1, 0.1 nM, mean of 3): 0.45 pmol/ml air
- ethylene, average (CuRe1 [4]; Suppl.Fig6b, N. benthamiana CuRe1, 1 nM, mean of 3): 1.1 pmol/ml air
- ethylene, average (CuRe1 [4]; Suppl.Fig6b, N. benthamiana CuRe1, 10 nM, mean of 3): 2.8 pmol/ml air
- ethylene, average (CuRe1 [4]; Suppl.Fig6b, N. benthamiana CuRe1, 100 nM, mean of 3): 11.3 pmol/ml air
- ethylene, average (CuRe1 [4]; Suppl.Fig6b, N. benthamiana CuRe1, 1000 nM, 3 leaf pieces + 0.5 ml H2O / 6 ml tube, 3 h RT, mean of 3): 11.6 pmol/ml air
- ethylene measurement, average (CuRe1 [4]; Suppl.Fig6c, N. benthamiana Cure1, peptides applied at 5 µM each, mean of the samples): 9.564

Substance: GGGGSGHGGHGKGKN [GRP15, 15 aa peptide that served as fingerprint for identification of CrGRP]
- activity in CuRe1-dependent ethylene induction (in words) (CuRe1 [4]): completely inactive
- ethylene, average (CuRe1 [4]; [11]): 0,2 and 0.2127
- ethylene, average (CuRe1 [4]; [12]): 0,3 and 0.2733
- ethylene, average (CuRe1 [4]; [13]): 0,6 and 0.5933
- ethylene, average (CuRe1 [4]; Fig3a + Supl4, N. benthamiana CuRe1, peptide 1000 nM, mean of 3 technical replicates): 0,4 and 0.3733
- activity at 100 µM (CuRe1 [4]; authors' reply in peer review file, refers to Supplementary Fig. 4): no activity

Substance: GKGKNCGNSGCCGGAYSNGQCKRCCAYKG [bio-Crip29]
- biotin labelling of CuRe1 immunoprecipitates (CuRe1 [5]; bio-Crip29 10 nM infiltrated, crosslinked with 2 mM EGS, myc-trap IP, Strep-AP blot): clear labelling
- activity in CuRe1-dependent ethylene induction (in words) (CuRe1 [4]): as active as Crip21
- ethylene, average (CuRe1 [4]; [6]): 0.2933
- ethylene, average (CuRe1 [4]; [7]): 0.34
- ethylene, average (CuRe1 [4]; [8]): 1.017
- ethylene, average (CuRe1 [4]; [9]): 5.31
- ethylene, average (CuRe1 [4]; [10]): 7.693

Substance: GKNCGNSGCCGGAYSNGQCKRCCAY [CrGRP82-106, synthetic peptide representing CrGRP residues 82-106]
- ethylene, average (N. benthamiana wt; Fig3a + Supl4, peptide 100 nM, mean of 3): 0.2267
- concentration at which ethylene production is triggered (minimum effective concentration) (CuRe1 [4]): ≥ 0.1 nM
- ethylene, average (CuRe1 [4]; [11]): 5.823
- ethylene, average (CuRe1 [4]; [12]): 8.73
- ethylene, average (CuRe1 [4]; [13]): 9.817
- Ethylene, MW (CuRe1 [4]; 1 nM, 3 h RT, mean of 3 samples): 1.5 pmol/ml air
- Ethylene, MW (CuRe1 [4]; 10 nM, 3 h RT, mean of 3 samples): 4.6 pmol/ml air
- Ethylene, MW (CuRe1 [4]; 100 nM, 3 h RT, mean of 3 samples): 8.9 pmol/ml air
- ethylene, average (CuRe1 [4]; [6]): 0.29
- ethylene, average (CuRe1 [4]; [7]): 1.63
- ethylene, average (CuRe1 [4]; [8]): 3.067
- ethylene, average (CuRe1 [4]; [9]): 8.457
- ethylene, average (CuRe1 [4]; [10]): 11.2833

Substance: non-modified Crip: unlabeled Crip21 or Crip82-106 (10 µM) used as competitor in crosslinking (NCGNSGCCGGAYSNGQCKRCC)
- competition of bio-Crip29 labelling of CuRe1 (CuRe1 [5]; bio-Crip29 10 nM with excess competitor (10 µM)): absent

From PMC7576778, “The tomato receptor CuRe1 senses a cell wall protein to identify Cuscuta as a pathogen” (Nature Communications, 2020)
